Reference: patent US20250074943A1, “DLL3 BINDING PEPTIDES AND USES THEREOF” (AMGEN INC., priority 2021, published 2025)
Where two headings read alike, the source gives them in different places. Bridge positions count the residues as written; N and C are the ends. Peptide text beside a SMILES is read from it. * marks the point of attachment. X1 = NC(=O)[C@H](CCCCNC(=O)CCOCCOCCOCCOCCNC(=O)CCC(=O)N1Cc2ccccc2C#Cc2ccccc21)NC(=O)CCC(=O)NCCCOCCOCCOCCCN*

Key:
rhDLL3-Fc = target: T1, rhDLL3-Fc (Homo sapiens, UniProt Q9NYJ7); assay: SPR binding / off-rate screening (Biacore T200)
T1 construct: The recombinant DLL3 ectodomain (rhDLL3-Fc) was biotinylated; Fc
T1 sequence (Q9NYJ7 27-492 limits assumed): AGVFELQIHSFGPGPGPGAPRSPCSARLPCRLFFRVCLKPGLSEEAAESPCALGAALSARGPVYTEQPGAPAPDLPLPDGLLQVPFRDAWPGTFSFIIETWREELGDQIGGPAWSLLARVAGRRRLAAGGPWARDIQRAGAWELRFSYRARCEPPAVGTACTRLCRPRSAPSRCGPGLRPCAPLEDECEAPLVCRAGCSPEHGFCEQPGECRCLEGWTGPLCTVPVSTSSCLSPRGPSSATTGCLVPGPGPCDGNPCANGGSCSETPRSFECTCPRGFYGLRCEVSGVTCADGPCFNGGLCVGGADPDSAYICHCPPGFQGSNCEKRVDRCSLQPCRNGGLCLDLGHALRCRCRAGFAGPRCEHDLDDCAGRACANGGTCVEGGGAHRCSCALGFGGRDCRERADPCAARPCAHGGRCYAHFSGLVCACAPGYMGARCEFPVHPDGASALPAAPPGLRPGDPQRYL
Protocol: […] The recombinant DLL3 ectodomain (rhDLL3-Fc) was biotinylated using EZ-Link Sulfo-NHS-LC-LC-Biotin Kit according to the manufacturer's protocol (Pierce by Thermo Fisher Scientific). The recombinant protein was incubated with an excess of NHS-LC-LC Biotin ester, in a molar ratio of 1:3 (protein: biotin), at 25° C. for 90 min. The un-reacted biotin ester was removed by subsequent buffer exchange on 0.5 ml Zeba spin desalting columns 7K MWCO (Pierce by Thermo Fisher Scientific).
The off-rate screening of the peptides was done using a Biacore T200 instrument (Cytiva, Sweden). […] Sensorgrams were analyzed by Biacore T200 Evaluation Software 3.0 (Cytiva, Sweden): specific binding was obtained by subtracting unspecific binding to naked biosensors and a zero analyte concentration made of binding assay buffer (double referencing). […]

[1] = target: T2, recombinant DLL3 ectodomain (rhDLL3-Fc) (Homo sapiens, UniProt Q9NYJ7); assay: Binding kinetic assay using Bio-layer interferometry (BLI); settings: for binding mode to DLL3: peptides at 20, 4 and 0.8 μM, fit to 1:1 Langmuir binding model; for affinity: wider dose-response 10×KD to 0.1×KD
T2 construct: The recombinant DLL3 ectodomain (rhDLL3-Fc) was biotinylated; Fc
T2 sequence (Q9NYJ7 27-492 limits assumed): T1 sequence (Q9NYJ7 27-492 limits assumed)
Protocol: Binding kinetic assays were performed using Bio-layer interferometry (BLI) technology. The recombinant DLL3 ectodomain (rhDLL3-Fc) was biotinylated using EZ-Link Sulfo-NHS-LC-LC-Biotin Kit according to the manufacturer's protocol (Pierce by Thermo Fisher Scientific). The recombinant protein was incubated with an excess of NHS-LC-LC Biotin ester, in a molar ratio of 1:3 (protein: biotin), at 25° C. for 90 min. The un-reacted biotin ester was removed by subsequent buffer exchange on 0.5 ml Zeba spin desalting columns 7K MWCO (Pierce by Thermo Fisher Scientific).

[2] = Table 4, ± values from three independent experiments, read-out: RT (residence time) (converted)
[3] = range over the seven peptides, read-out: residence time
[4] = Table 4, ± values from three independent experiments

Compound | residence time [1, 2] | binding mode to DLL3 [1] | residence time [1, 3] | affinity [1] | RT (residence time) [1, 4] | koff (rhDLL3-Fc) | kon (rhDLL3-Fc)
CC(=O)N[C@@H](C)C(=O)N[C@@H](CCC(=O)O)C(=O)N[C@H](C(=O)N[C@H](C(=O)N[C@@H](CCC(=O)O)C(=O)N[C@@H](Cc1ccccc1)C(=O)N[C@@H](Cc1c[nH]c2ccccc12)C(=O)N[C@@H](Cc1c[nH]c2ccccc12)C(=O)N[C@H]1CSSC[C@@H](C(=O)N[C@H](C(=O)N[C@@H](Cc2c[nH]c3ccccc23)C(=O)NCC(=O)NCC(=O)NCCCOCCOCCOCCCNC(=O)CCC(=O)N[C@@H](CCCCNC(=O)CCOCCOCCOCCOCCNC(=O)CCC(=O)N2Cc3ccccc3C#Cc3ccccc32)C(N)=O)[C@@H](C)O)NC(=O)[C@H]([C@@H](C)O)NC(=O)[C@H](Cc2c[nH]c3ccccc23)NC(=O)[C@H](CC(N)=O)NC(=O)[C@H](CCC(=O)O)NC(=O)[C@H](CO)NC(=O)[C@H](CC(N)=O)NC(=O)CNC(=O)[C@H](CC(N)=O)NC1=O)C(C)C)[C@@H](C)O [PepSP1462] (Ac-AETVEFWWCNGNSENWTCTWGG-X1; disulfide 9-18 (inferred)) | – | – | – | – | – | 0.0014 s⁻¹ | 230000 M⁻¹ s⁻¹
CC(C)[C@@H]1NC(=O)[C@H]([C@@H](C)O)NC(=O)[C@H](CCC(=O)O)NC(=O)[C@H](CCC(=O)O)NC(=O)[C@H](Cc2ccc(O)cc2)NC(=O)[C@H](Cc2c[nH]c3ccccc23)NC(=O)[C@H](CC(=O)O)NC(=O)[C@@H](NC(=O)[C@H](CCCNC(=N)N)NC(=O)[C@H](Cc2c[nH]c3ccccc23)NC(=O)[C@H](Cc2ccc(O)cc2)NC(=O)[C@H](CCC(=O)O)NC(=O)[C@@H](NC(=O)[C@@H](NC(=O)[C@H](CCC(=O)O)NC(=O)[C@H](C)N)[C@@H](C)O)C(C)C)CSSC[C@@H](C(=O)NCC(=O)N[C@H](C(N)=O)[C@@H](C)O)NC(=O)[C@H](C)NC1=O [PepSP1155] (H-AETVEYWRCDWYEETVACGT-NH2; disulfide 9-18) | 2.95 min | dose-response saturable binding | – | – | – | – | –
CC(C)[C@H](NC(=O)[C@@H](NC(=O)[C@H](CCC(=O)O)NC(=O)[C@H](C)N)[C@@H](C)O)C(=O)N[C@@H](CCC(=O)O)C(=O)N[C@@H](Cc1ccccc1)C(=O)N[C@@H](Cc1c[nH]c2ccccc12)C(=O)N[C@@H](CC(=O)O)C(=O)N[C@H]1CSSC[C@@H](C(=O)N[C@H](C(=O)N[C@@H](Cc2c[nH]c3ccccc23)C(N)=O)[C@@H](C)O)NC(=O)[C@H]([C@@H](C)O)NC(=O)[C@H](Cc2c[nH]c3ccccc23)NC(=O)[C@H](CC(=O)O)NC(=O)[C@H](CC(=O)O)NC(=O)[C@H]([C@@H](C)O)NC(=O)[C@H](CC(N)=O)NC(=O)CNC(=O)[C@H](Cc2c[nH]c3ccccc23)NC1=O [PepSP1161] (H-AETVEFWDCWGNTDDWTCTW-NH2; disulfide 9-18; N-terminus assumed) | 1.46 min | dose-response saturable binding | 1 to 3 min | double-digit nM range | 87.8 ± 6 s | – | –
C[C@@H](O)[C@H](NC(=O)[C@@H]1CSSC[C@H](NC(=O)[C@H](CC(=O)O)NC(=O)[C@@H](N)Cc2c[nH]c3ccccc23)C(=O)N[C@@H](Cc2c[nH]c3ccccc23)C(=O)NCC(=O)N[C@@H](CC(N)=O)C(=O)N[C@@H]([C@@H](C)O)C(=O)N[C@@H](CC(=O)O)C(=O)N[C@@H](CC(=O)O)C(=O)N[C@@H](Cc2c[nH]c3ccccc23)C(=O)N[C@@H]([C@@H](C)O)C(=O)N1)C(=O)N[C@@H](Cc1c[nH]c2ccccc12)C(N)=O [PepSP1269] (H-WDCWGNTDDWTCTW-NH2; disulfide 3-12; N-terminus assumed) | 0.333 min | – | – | – | – | – | –
CC(C)[C@H](NC(=O)[C@@H](NC(=O)[C@H](CCC(=O)O)NC(=O)[C@H](C)N)[C@@H](C)O)C(=O)N[C@@H](CCC(=O)O)C(=O)N[C@@H](Cc1ccccc1)C(=O)N[C@@H](Cc1ccc(O)cc1)C(=O)NCC(=O)N[C@H]1CSSC[C@@H](C(=O)N[C@H](C(=O)N[C@@H](Cc2c[nH]c3ccccc23)C(N)=O)[C@@H](C)O)NC(=O)[C@H]([C@@H](C)O)NC(=O)[C@H](Cc2ccc(O)cc2)NC(=O)[C@H](CC(=O)O)NC(=O)[C@H](CC(N)=O)NC(=O)[C@H](CCCNC(=N)N)NC(=O)[C@H](CC(=O)O)NC(=O)CNC(=O)[C@H](Cc2ccc(O)cc2)NC1=O [PepSP1178] (H-AETVEFYGCYGDRNDYTCTW-NH2; disulfide 9-18; N-terminus assumed) | 1.27 min | dose-response saturable binding | 1 to 3 min | double-digit nM range | – | – | –
CC(C)C[C@H](NC(=O)[C@H](Cc1ccccc1)NC(=O)[C@H](CCC(=O)O)NC(=O)[C@@H](NC(=O)[C@@H](NC(=O)[C@H](CCC(=O)O)NC(=O)[C@H](C)N)[C@@H](C)O)C(C)C)C(=O)NCC(=O)N[C@H]1CSSC[C@@H](C(=O)N[C@H](C(=O)N[C@@H](Cc2c[nH]c3ccccc23)C(N)=O)C(C)C)NC(=O)[C@H]([C@@H](C)O)NC(=O)[C@H](Cc2c[nH]c3ccccc23)NC(=O)[C@H](CCC(=O)O)NC(=O)[C@H](CO)NC(=O)[C@H](CC(N)=O)NC(=O)[C@H](CC(=O)O)NC(=O)CNC(=O)[C@H](Cc2c[nH]cn2)NC1=O [PepSP1163] (H-AETVEFLGCHGDNSEWTCVW-NH2; disulfide 9-18) | 2.78 min | dose-response saturable binding | 1 to 3 min | double-digit nM range | 166.8 ± 19.5 s | – | –

Second part, led by results:

residence time [1, 2] | binding mode to DLL3 [1] | residence time [1, 3] | affinity [1] | RT (residence time) [1, 4] | Compound | koff (rhDLL3-Fc) | kon (rhDLL3-Fc)
1.09 min | dose-response saturable binding | 1 to 3 min | double-digit nM range | – | CC(C)[C@H](NC(=O)[C@@H](NC(=O)[C@H](CCC(=O)O)NC(=O)[C@H](C)N)[C@@H](C)O)C(=O)N[C@@H](CCC(=O)O)C(=O)N[C@@H](Cc1ccccc1)C(=O)N[C@@H](Cc1ccc(O)cc1)C(=O)NCC(=O)N[C@H]1CSSC[C@@H](C(=O)N[C@H](C(=O)N[C@@H](Cc2c[nH]c3ccccc23)C(N)=O)[C@@H](C)O)NC(=O)[C@H]([C@@H](C)O)NC(=O)[C@H](Cc2ccc(O)cc2)NC(=O)[C@H](CCC(=O)O)NC(=O)[C@H](Cc2ccc(O)cc2)NC(=O)[C@H](C)NC(=O)[C@H](CC(=O)O)NC(=O)CNC(=O)[C@H]([C@@H](C)O)NC1=O [PepSP1147] (H-AETVEFYGCTGDAYEYTCTW-NH2; disulfide 9-18; N-terminus assumed) | – | –
0.717 min | dose-response saturable binding | – | – | – | CC(C)[C@@H]1NC(=O)[C@H](CO)NC(=O)[C@@H](NC(=O)CNC(=O)[C@H](Cc2ccc(O)cc2)NC(=O)[C@H](Cc2ccccc2)NC(=O)[C@H](CCC(=O)O)NC(=O)[C@@H](NC(=O)[C@@H](NC(=O)[C@H](CCC(=O)O)NC(=O)[C@H](C)N)[C@@H](C)O)C(C)C)CSSC[C@@H](C(=O)N[C@@H](CO)C(=O)N[C@@H](Cc2c[nH]c3ccccc23)C(N)=O)NC(=O)[C@H]([C@@H](C)O)NC(=O)[C@H](Cc2c[nH]c3ccccc23)NC(=O)CNC(=O)[C@H](CC(=O)O)NC(=O)[C@H](C)NC(=O)[C@H](CC(N)=O)NC1=O [PepSP1170] (H-AETVEFYGCSVNADGWTCSW-NH2; disulfide 9-18) | – | –
1.68 min | dose-response saturable binding | – | – | – | CC(C)C[C@H](NC(=O)[C@@H]1CSSC[C@H](NC(=O)CNC(=O)[C@H](Cc2ccc(O)cc2)NC(=O)[C@H](Cc2ccccc2)NC(=O)[C@H](CCC(=O)O)NC(=O)[C@@H](NC(=O)[C@@H](NC(=O)[C@H](CCC(=O)O)NC(=O)[C@H](C)N)[C@@H](C)O)C(C)C)C(=O)N[C@@H](Cc2ccc(O)cc2)C(=O)NCC(=O)N[C@@H](CCC(=O)O)C(=O)N[C@@H](CCC(N)=O)C(=O)N[C@@H](CCC(=O)O)C(=O)N[C@@H](CCC(N)=O)C(=O)N[C@@H](Cc2c[nH]c3ccccc23)C(=O)N[C@@H]([C@@H](C)O)C(=O)N1)C(=O)N[C@@H](Cc1c[nH]c2ccccc12)C(N)=O [PepSP1173] (H-AETVEFYGCYGEQEQWTCLW-NH2; disulfide 9-18) | – | –
0.783 min | dose-response saturable binding | – | – | – | CC(C)C[C@H](NC(=O)[C@@H]1CSSC[C@H](NC(=O)CNC(=O)[C@H](Cc2ccc(O)cc2)NC(=O)[C@H](Cc2ccccc2)NC(=O)[C@H](CCC(=O)O)NC(=O)[C@@H](NC(=O)[C@@H](NC(=O)[C@H](CCC(=O)O)NC(=O)[C@H](C)N)[C@@H](C)O)C(C)C)C(=O)N[C@@H](CCC(=O)O)C(=O)N[C@@H]([C@@H](C)O)C(=O)N[C@@H](Cc2ccc(O)cc2)C(=O)N[C@@H](CO)C(=O)NCC(=O)NCC(=O)N[C@@H](Cc2c[nH]c3ccccc23)C(=O)N[C@@H]([C@@H](C)O)C(=O)N1)C(=O)N[C@@H](Cc1c[nH]c2ccccc12)C(N)=O [PepSP1167] (H-AETVEFYGCETYSGGWTCLW-NH2; disulfide 9-18) | – | –
